Patent publication US10918741B2, “PSMA-targeting imaging agents” (THE CLEVELAND CLINIC FOUNDATION, priority 2014, dated 2021)
“Also recorded” adds a separate entry of the source. Primed or numbered codes have the meaning given here. Where no end group is shown, it is not given here. [ ]: non-standard residue; d: D form. Amc = N-aminomethyl cyclohexanoic acid; Ahx = NCCCCCC(=O)O; E′E = Glu-urea-Glu

Legend:
[1] = cited from earlier work
[2] = hematological, biochemistry, and histopathological analyses; cited from earlier work
[3] = tested on: PC3-PIP (PSMA+) and PC3-flu (PSMA−) tumor xenographs; test: SPECT/CT imaging of [^99mTc]3; assay type: in vivo, mice; conditions: 4 hours after tail vein injection
Experimental: (§1) Male NOD scid gamma (NSG) mice bearing PC3-PIP (PSMA+) and PC3-flu (PSMA−) tumor xenographs were used for imaging. The mice were injected with 3 mCi of [^99mTc]3. Four hours after tracer injection, SPECT/CT images were acquired using a high-resolution multi-pinhole SPECT with collimation insert with a clinical SPECT/CT scanner (Symbia T6, Siemens Molecular Imaging). DiFilippo, F. P. Phys Med Biol 53(15): 4185-4201 (2008). For the biodistribution study without imaging, male NSG mice bearing two PC3-PIP tumors were injected with 50-100 µCi of [^99mTc]3. Mice were sacrificed at 2 hours, 4 hours and 6 hours after injection. After thoracotomy, blood was first withdrawn from the heart, then the organs were resected en-block. The activities were counted with a Perkin Elmer 2480 Automatic Gamma Counter. The decay corrected percent injected dose per gram of organ weight (wet) (% ID/g) was calculated.

[4] = assay type: physicochemical
Experimental: Labeling with technetium typically yields 95% radiochemical purity after SepPak purification. […] The kidneys and bladder are the most prominent organs on the images, because PSMA is expressed naturally in mouse kidneys and because it is a renally excreted compound. […] Tumor uptake is 6.0±1.6% at 2 hours, 6.0±2.2% at 4 hours and 5.7%±2.5% at 6 hours (Table 2). […] This is likely related to residual pertechnetate after cartridge purification and dissociation of technetium from the chelate.

PC3-PIP tumors = tested on: PC3-PIP tumors; set-up: species or system mice; conditions: mouse, in vivo
Experimental: as §1

Compound	water solubility in words [1]	toxicity in words [2]	SPECT/CT imaging result in words [3]	stability under solvent conditions for HPLC [4]	radioactivity in the stomach (PC3-PIP tumors)	radioactivity in the thyroid (PC3-PIP tumors)
CC1(C)C(=CC=C2CCCC(C=CC3=[N+](CCCCCC(=O)[O-])c4ccc(S(=O)(=O)[O-])cc4C3(C)C)=C2Oc2ccc(S(=O)(=O)[O-])cc2)N(CCCCS(=O)(=O)[O-])c2ccc(S(=O)(=O)[O-])cc21.[Na+].[Na+].[Na+].[Na+] [IRDye 800CW]	highly water soluble	no pathologic evidence of toxicity				
^99mTc-E′EAmc-Ahx-dEdEdEGYGGGC ({E′E-Amc}-[Ahx][dE][dE][dE]GYGGGC; not fully specified (C-terminus); also: 99mTc chelated (N3S1)) [[^99mTc]3, Tc99m labeled compound 3]			specific targeting of PSMA+PC3-PIP tumors with no significant binding to PC3-flu tumors; also recorded: near background tracer uptake in the PSMA negative tumors, liver, lung, heart and spleen	not stable	0.2 % ID/g	0.3 % ID/g
